Values quoted from earlier work, collected in US9511035B2, “Java ginger extract and manufacturing method” (Hosoda SHC Inc., priority 2013, dated 2016).

Key:
[1] = tested on: rat adrenal medullary pheochromocytoma (PC12 cell); conditions: stated in words; for NGF-like action: no data in this patent, earlier finding of the inventors (JP 2010-90053 A)
[2] = target: platelet-activating factor (Homo sapiens, UniProt P25105); conditions: disclosed in JP 2003-313116 A
tyrosinase = conditions: disclosed in JP 2003-313116 A
chemokine expression = conditions: disclosed in JP 2003-306438 A

Sequence of platelet-activating factor (P25105 whole entry): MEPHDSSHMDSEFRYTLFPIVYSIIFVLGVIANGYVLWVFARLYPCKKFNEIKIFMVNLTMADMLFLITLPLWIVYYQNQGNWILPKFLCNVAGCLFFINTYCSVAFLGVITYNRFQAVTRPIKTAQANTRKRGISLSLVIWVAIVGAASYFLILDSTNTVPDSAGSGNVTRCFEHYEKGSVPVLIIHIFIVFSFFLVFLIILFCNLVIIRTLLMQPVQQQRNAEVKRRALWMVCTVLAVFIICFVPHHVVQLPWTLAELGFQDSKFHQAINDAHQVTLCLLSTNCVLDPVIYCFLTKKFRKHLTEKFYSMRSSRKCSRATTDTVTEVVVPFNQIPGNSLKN

For `C=C/C=C/c1ccc(OC)c(OC)c1` [monomer, phenyl butenoid monomer, reference compound], which NGF-like action [1] is on record?
The NGF-like action was “no NGF-like action”.

Which process extension activity ([1]; PC12 cell) does the source give for `COc1ccc(/C=C/C2CCC=CC2c2ccc(OC)c(OC)c2)cc1OC` (centres unmarked) [phenyl butenoid dimer] here?
The process extension activity was “shows a process extension activity”.

And the “differentiation of PC12 cell” value ([1]; as is the case with the NGF)?
The value was “induces differentiation”.

What about the “NGF-like action (neuronal process extension action) relative to NGF” value ([1]; comparison with NGF) of the same molecule?
The value was “more effective than NGF”.

And the NGF-like action [1]?
The NGF-like action was “showed an NGF-like action”.

And the platelet-activating factor antagonism [2]?
The platelet-activating factor antagonism was “platelet-activating factor antagonism”.

What about the tyrosinase activity-inhibiting action (tyrosinase) of the same molecule?
The tyrosinase activity-inhibiting action was “tyrosinase activity-inhibiting action”.

And the chemokine expression-inhibiting action (chemokine expression)?
The chemokine expression-inhibiting action was “chemokine expression-inhibiting action”.
